Where two headings read alike, the source gives them in different places.
What was measured:
[1] = test system: SMN2 minigene (full length SMN2 minigene mRNA containing SMN2 exon 7); experiment: SMN2 minigene mRNA splicing RT-qPCR assay in cultured cells; assay type: cell-based, human; conditions: Homo sapiens, HEK293-H, read-out: EC1.5x for production of full length SMN2 mRNA
In short: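 Read-out: full-length (exon 7-included) SMN2 minigene mRNA by multiplex RT-qPCR with GAPDH, efficiency-corrected (1+E)^−Ct, GAPDH-normalized and divided by vehicle. Stably transfected HEK293H cells, 24 h compound exposure, duplicates per concentration. Value is EC1.5x, reported as star ranges.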

Smn protein = Smn protein assay in cultured cells (SMN HTRF); assay type: cell-based, human; conditions: 48 hours; for maximum fold (Fold) increase of Smn protein: SMA patient fibroblast cells, 7-point concentration data, fold increase relative to vehicle control (SMN HTRF); for EC1.5x (concentration giving 1.5-fold Smn protein increase): SMA Type 1 patient fibroblast cells (GM03813), 7-point concentration curve, SMN HTRF, concentration producing 1.5 times Smn protein vs DMSO vehicle control, read-out: EC1.5x for Smn protein expression
In short: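 Lysates in RIPA with protease inhibitors are incubated overnight at room temperature with HTRF anti-SMN antibodies. EC1.5x is derived from fold increase in ΔF over vehicle.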

[2] = HEK293H cells stably transfected with SMN2-A minigene, 24 hours, 7-point concentration curve, 1.5-fold relative to vehicle-treated cells

| melting point [°C] | Compound | EC (1.5-fold) [1, 2] [µM] | maximum fold (Fold) increase of Smn protein (Smn protein) | EC1.5x (concentration giving 1.5-fold Smn protein increase) (Smn protein) [nM] | EC (1.5-fold) ([1]; 24 h) [µM] |
| --- | --- | --- | --- | --- | --- |
| 290 to 292 | CN1CCN(c2ccc3cc(-c4cn5cc(Cl)ccc5n4)c(=O)oc3c2)CC1 [Compound 94, 3-(6-chloroimidazo[1,2-a]pyridin-2-yl)-7-(4-methylpiperazin-1-yl)-2H-chromen-2-one] | 3 to 30 | *** (fold increase between >1.35 and ≤1.5) | – | – |
| 208 to 212 | CCCN1CCC(c2ccc3cc(-c4cn5cc(C)nc(C)c5n4)c(=O)oc3c2)CC1 [Compound 842, 3-(6,8-dimethylimidazo[1,2-a]pyrazin-2-yl)-7-(1-propylpiperidin-4-yl)-2H-chromen-2-one] | < 0.1 | ***** (fold increase >1.65) | < 300 | – |
| 188 to 191 | CCc1cn2cc(-c3cc4ccc(N5CCCN(C)CC5)cc4oc3=O)nc2s1 [Compound 431, 3-(2-ethylimidazo[2,1-b][1,3]thiazol-6-yl)-7-(4-methyl-1,4-diazepan-1-yl)-2H-chromen-2-one] | 1 to 3 | * (maximum fold increase of ≤1.2) | – | – |
| 165 to 168 | Cc1cn2cc(-c3cc4ccc(OC5CCN(CCO)CC5)cc4oc3=O)nc2c(C)n1 [Compound 899, 3-(6,8-dimethylimidazo[1,2-a]pyrazin-2-yl)-7-{[1-(2-hydroxyethyl)piperidin-4-yl]oxy}-2H-chromen-2-one] | < 0.1 | ***** (fold increase >1.65) | < 300 | – |
| 215 to 218 | C[C@@H]1CN(c2ccc3cc(-c4cn5cccc(Cl)c5n4)c(=O)oc3c2)CCN1 [Compound 183, 3-(8-chloroimidazo[1,2-a]pyridin-2-yl)-7-[(3R)-3-methylpiperazin-1-yl]-2H-chromen-2-one] | 0.3 to 1 | ** (fold increase between >1.2 and ≤1.35) | – | – |
| 220 to 228 | Cc1cn2cc(-c3cc4ccc(N5CC(N6CCCCC6C)C5)cc4oc3=O)nc2c(C)n1 (centres unmarked) [Compound 942, 3-(6,8-dimethylimidazo[1,2-a]pyrazin-2-yl)-7-[3-(2-methylpiperidin-1-yl)azetidin-1-yl]-2H-chromen-2-one] | < 0.1 | *** (fold increase between >1.35 and ≤1.5) | 1000 to 3000 | – |
| 276 to 286 | O=c1oc2cc(N3CCNCC3)ccc2cc1-c1cn2cc(F)cc(F)c2n1 [Compound 532, 3-(6,8-difluoroimidazo[1,2-a]pyridin-2-yl)-7-(piperazin-1-yl)-2H-chromen-2-one] | 0.3 to 1 | * (maximum fold increase of ≤1.2) | – | – |
| 187 to 190 | Cc1cn2cc(-c3cc4ccc(OCCN5CCC(O)CC5)cc4oc3=O)nc2c(C)n1 [Compound 957, 3-(6,8-dimethylimidazo[1,2-a]pyrazin-2-yl)-7-[2-(4-hydroxypiperidin-1-yl)ethoxy]-2H-chromen-2-one] | < 0.1 | **** (fold increase between >1.5 and ≤1.65) | 300 to 1000 | – |
| 133 to 135 | CCN1C[C@@H]2C[C@H]1CN2c1ccc2cc(-c3cn4cc(C)nc(C)c4n3)c(=O)oc2c1 [Compound 793, 3-(6,8-dimethylimidazo[1,2-a]pyrazin-2-yl)-7-[(1S,4S)-5-ethyl-2,5-diazabicyclo[2.2.1]hept-2-yl]-2H-chromen-2-one] | < 0.1 | **** (fold increase between >1.5 and ≤1.65) | < 300 | – |
| 190 to 193 | Cc1cn2cc(-c3cc4ccc(CCCCN(C)C)cc4oc3=O)nc2c(C)n1 [Cpd 902, 7-[4-(dimethylamino)butyl]-3-(6,8-dimethylimidazo[1,2-a]pyrazin-2-yl)-2H-chromen-2-one] | < 0.1 | ***** (fold increase >1.65) | < 300 | – |
| 217 to 220 | CN1CCN(c2ccc3cc(-c4cn5cccc(Br)c5n4)c(=O)oc3c2)CC1 [Compound 245, 3-(8-bromoimidazo[1,2-a]pyridin-2-yl)-7-(4-methylpiperazin-1-yl)-2H-chromen-2-one] | 0.1 to 0.3 | ** (fold increase between >1.2 and ≤1.35) | – | – |
| 188 to 191 | Cc1cn2cc(-c3cc4ccc(N5CCCNCC5)cc4oc3=O)nc2s1 [Compound 233, 7-(1,4-diazepan-1-yl)-3-(2-methylimidazo[2,1-b][1,3]thiazol-6-yl)-2H-chromen-2-one] | 0.1 to 0.3 | *** (fold increase between >1.35 and ≤1.5) | – | – |
| 185 to 191 | Cc1cn2cc(-c3cc4ccc(OC5CCN(C(C)C)CC5)cc4oc3=O)nc2c(C)n1 [Compound 901, 3-(6,8-dimethylimidazo[1,2-a]pyrazin-2-yl)-7-{[1-(propan-2-yl)piperidin-4-yl]oxy}-2H-chromen-2-one] | < 0.1 | ***** (fold increase >1.65) | < 300 | – |

Second part, the compound before the results:

| Compound | melting point [°C] | EC (1.5-fold) [1, 2] [µM] | maximum fold (Fold) increase of Smn protein (Smn protein) | EC1.5x (concentration giving 1.5-fold Smn protein increase) (Smn protein) [nM] | EC (1.5-fold) ([1]; 24 h) [µM] |
| --- | --- | --- | --- | --- | --- |
| Cc1ccc2nc(-c3cc4ccc(N5CC6CCCNC6C5)cc4oc3=O)cn2c1 (centres unmarked) [Compound 255, 3-(6-methylimidazo[1,2-a]pyridin-2-yl)-7-(octahydro-6H-pyrrolo[3,4-b]pyridin-6-yl)-2H-chromen-2-one] | 220 to 230 | 3 to 30 | * (maximum fold increase of ≤1.2) | – | – |
| CN1CCN(c2ccc3cc(-c4cccnc4C(F)(F)F)c(=O)oc3c2)CC1 [Compound 125, 7-(4-methylpiperazin-1-yl)-3-[2-(trifluoromethyl)pyridin-3-yl]-2H-chromen-2-one] | 180 to 182 | 1 to 3 | * (maximum fold increase of ≤1.2) | – | – |
| COc1cc(OC)cc(-c2cc3ccc(N4CCN[C@H](C)C4)cc3oc2=O)c1 [Compound 412, 3-(3,5-dimethoxyphenyl)-7-[(3R)-3-methylpiperazin-1-yl]-2H-chromen-2-one] | 148 to 150 | 3 to 30 | * (maximum fold increase of ≤1.2) | – | – |
| Cc1nn2cc(-c3cc4ccc(N5CCNCC5)cc4oc3=O)nc2s1 [Cpd 441, 3-(2-methylimidazo[2,1-b][1,3,4]thiadiazol-6-yl)-7-(piperazin-1-yl)-2H-chromen-2-one] | 288 to 290 | < 0.1 | *** (fold increase between >1.35 and ≤1.5) | – | – |
| Cc1csc(-c2cc3ccc(N4CCN[C@H](C)C4)cc3oc2=O)n1 [Compound 300, 7-[(3R)-3-methylpiperazin-1-yl]-3-(4-methyl-1,3-thiazol-2-yl)-2H-chromen-2-one] | 176 | – | * (maximum fold increase of ≤1.2) | – | 1 to 3 |
| CN1CCN(c2ccc3cc(-c4cn5ccsc5n4)c(=O)oc3c2)CC1 [Cpd 117, 3-(imidazo[2,1-b][1,3]thiazol-6-yl)-7-(4-methylpiperazin-1-yl)-2H-chromen-2-one] | 256 to 258 | 0.1 to 0.3 | **** (fold increase between >1.5 and ≤1.65) | 300 to 1000 | – |
| Cc1ccn2cc(-c3cc4ccc(N5CCN6CCC[C@H]6C5)cc4oc3=O)nc2c1 [Compound 534, 7-[(8aS)-hexahydropyrrolo[1,2-a]pyrazin-2(1H)-yl]-3-(7-methylimidazo[1,2-a]pyridin-2-yl)-2H-chromen-2-one] | 258 to 265 | 1 to 3 | *** (fold increase between >1.35 and ≤1.5) | – | – |
| C[C@@H]1CN(c2ccc3cc(-c4nc(C(F)(F)F)cs4)c(=O)oc3c2)C[C@H](C)N1 [Compound 236, 7-[(3R,5S)-3,5-dimethylpiperazin-1-yl]-3-[4-(trifluoromethyl)-1,3-thiazol-2-yl]-2H-chromen-2-one] | 215 to 219 | 1 to 3 | * (maximum fold increase of ≤1.2) | – | – |
| C[C@@H]1CN(c2cc(F)c3cc(-c4nc5c(F)cccc5o4)c(=O)oc3c2)C[C@H](C)N1 [Compound 367, 7-[(3R,5S)-3,5-dimethylpiperazin-1-yl]-5-fluoro-3-(4-fluoro-1,3-benzoxazol-2-yl)-2H-chromen-2-one] | 268 to 272 | 0.1 to 0.3 | *** (fold increase between >1.35 and ≤1.5) | – | – |
| CC1(C)CN(c2ccc3cc(-c4cn5cc(F)ccc5n4)c(=O)oc3c2)CCN1 [Compound 508, 7-(3,3-dimethylpiperazin-1-yl)-3-(6-fluoroimidazo[1,2-a]pyridin-2-yl)-2H-chromen-2-one] | 182 to 185 | 0.3 to 1 | ** (fold increase between >1.2 and ≤1.35) | – | – |
| O=c1oc2cc(N3CCNCC3)ccc2cc1-c1cccc(C(F)(F)F)n1 [Compound 90, 7-(piperazin-1-yl)-3-[6-(trifluoromethyl)pyridin-2-yl]-2H-chromen-2-one] | 158 to 160 | 0.3 to 1 | *** (fold increase between >1.35 and ≤1.5) | – | – |

From USRE47689E1, “Compounds for treating spinal muscular atrophy” (PTC Therapeutics, Inc., priority 2011, dated 2019)
